The record followed here is patent publication US10428045B2, “Benzazepine compounds, conjugates, and uses thereof” (Silverback Therapeutics, Inc., priority 2017, dated 2019).

Experiment [1] relates to Trop2+ MDA-MB-453 cells. The experiment can be described thus: Antigen dependent human monocyte activation in mouse model, TROP2+ tumor. The class given is in vivo. The following applies: NOD SCID mice with TROP2+ tumor, 5-20 mg/kg intravenously, human monocytes injected intratumorally. On the procedure: (§1) Human monocytes were prepared as described above. Trop2^+ MDA-MB-453 cells or Trop2^− MiaPaca2 were cultured by standard methods. A TLR8 benzazepine linker payload (LP) was prepared by attaching a MCC (N-maleimidomethyl]cyclohexane-1-carboxylate) linker in place of the mc-vc-PABA linker in Compound-Linker 2.1 to form Compound-Linker 2.22. TROP2-TLR8 benzazepine conjugates were prepared by conjugation of Compound-Linker 2.22 to a TROP2 antibody (sacituzumab) to form a conjugate with an average DAR of about 4.
(§2) On Day 1 NOD SCID mice were injected with 5×10^5 Trop2^+ MDA-MB-453 cells or Trop2-MiaPaca2 cells. Seven to ten days later when the tumor size reached about 300 mm^3, the mice were injected intraveneously with 5-20 mg/kg of the TROP2-TLR8 benzazepine conjugate or TROP2 antibody alone. Sixteen hours later, 10^6 human monocytes were injected intratumorally. Four to six hours later, the tumors were harvested and digested. Monocytes were identified by staining for cell surface markers and monocyte activation was determined by intracellular staining for IL-6.

The subject of experiment [2] is Trop2− MiaPaca2. The experiment can be described thus: Antigen dependent human monocyte activation in mouse model, TROP2− tumor. The settings on record: NOD SCID mice with TROP2− tumor, 5-20 mg/kg intravenously, human monocytes injected intratumorally. The class given is in vivo. As for the experimental part: as §1, §2

Regarding “control antibody: "TROP2 antibody alone"; "a TROP2 antibody (sacituzumab)"”, the “human monocyte activation (intracellular staining for IL-6)” value in experiment [1] and in experiment [2] was “did not cause human monocyte activation” in each case.
